From patent EP4643657A1, “COMPOSITIONS CONTAINING SHORT-CHAIN FATTY ACID, METHODS OF USE, AND METHODS OF MAKING THEREOF” (Velocity Life Sciences, LLC, priority 2024, dated 2025)
Several values for one entry are separate records, joined by “and”; a condition that tells them apart may be missing. Equal entries are not always repeated. Entries after “also recorded” stand apart in the source; their conditions may differ.

How the values were obtained:
[1] = given intravenously; plasma; cited from earlier work
[2] = Exposure of the prepared salt to air at room temperature (hygroscopicity, storage stability); format: physicochemical
Text: The L-arginine butyrate prepared using ethanol as the sole solvent was a white to off-white powder.
The L-lysine butyrate prepared using ethanol as the sole solvent was a light, pale yellow to yellow powder. […] Table 1: Attempted preparation of salts of amino acids and amino acid derivatives of butyric acid.

[3] = Nootropic and related properties after oral administration (Example 3); format: in vivo, human
Description: In another experiment, L-lysine butyrate in a dose range of 500 mg to 5,000 mg was administered as an aqueous solution to six individuals aged between 22 and 55 years, comprising two women and four men. […] The observed effects were dose-dependent, with larger doses of L-lysine butyrate providing greater effects and longer duration, lasting up to four hours.
In another experiment, L-lysine butyrate in a dose of 2 g, and on a separate occasion 5 g, was administered in encapsulated form, to 2 individuals. A further individual was administered L-lysine butyrate in a dose of 2 g in encapsuled form.

[4] = Serum butyrate pharmacokinetics, randomized three-arm crossover trial (Example 5); conditions: for Serum Butyrate: 10 healthy men, Mean ± SD
[5] = Visual-analog scales of affect, randomized three-arm crossover trial (Example 5); format: in vivo, human
Description: Experimental Design: This was a randomized, three-arm, crossover trial in which participants visited the laboratory on four occasions (one screening visit and three testing visits). […] Written informed consent was obtained from all subjects prior to enrollment. The study was retrospectively registered on clinicaltrials.gov (#NCT06700785). This study was conducted at The Center for Applied Health Sciences, a contract research organization located in Northeast Ohio. […] VAS assessed subjective ratings of state of well-being, calm and relaxed, stressed and anxious, mood, motivation to perform tasks, level of alertness, and ability to concentrate and were anchored with "Worst possible", "Lowest possible", "Strongly Disagree", or "Best Possible", "Highest Possible", "Strongly Agree". […] Statistical Analyses: Normality was assessed using Q-Q plot and Shapiro-Wilks test. Severe non-normal measures were normalized using log (In) transformation. Serum butyrate concentrations, subjective ratings of affect, and vitals over time between treatments were analyzed using a mixed effects factorial ANOVA . Tukey post hocs were applied if significant main effects/interactions were observed. […] Effect sizes are reported as Cohen's d (with 0.2 considered a small effect, 0.5 considered a medium effect, and 0.8 considered a large effect). All analyses were conducted in GraphPad Prism v.10.4.0.

[6] = 500 mg to 5,000 mg as aqueous solution, six individuals
[7] = paired samples t-test, listed as LysB
[8] = 0 min (prior to ingestion), 100-mm VAS, Mean±SD

Which half-life [1] does the source give for `CCCC(=O)O` [Butyric Acid, butanoic acid] here?
The half-life was “about six”.

Which “Appearance after exposure to air” value ([2]; 24 hours at room temperature) does the source give for `CCCC(=O)O` [L-Lysine Butyrate, L-lysine butyrate] here?
The value was “remained a fine, free-flowing yellow powder”.

What about the Hygroscopicity ([2]; exposed at room temperature to air) of the same molecule?
Its Hygroscopicity is “not hygroscopic”.

What about the “Appearance after exposure to air” value ([2]; seven (7) days at room temperature) of the same molecule?
Its value is “remained a fine, free-flowing powder with no color change”.

What about the “Appearance after exposure to air” value ([2]; thirty (30) days at room temperature) of the same molecule?
The value was “remained a fine, free-flowing powder”.

What about the “Dose dependence of observed effects” value ([3]; 500 mg to 5,000 mg as aqueous solution) of the same molecule?
The value was “dose-dependent”.

What about the “Effects reported by participants” value [3, 6] of the same molecule?
Its value is “more relaxed, less tired, more sociable, and able to concentrate on tasks more effectively”.

What about the “Time to reported effects after administration” value [3, 6] of the same molecule?
Its value is “thirty”.

What about the Duration of effects ([3]; 500 mg to 5,000 mg as aqueous solution, larger doses) of the same molecule?
Its Duration of effects is “up to four”.

What about the Analgesic effect ([3]; 2 g oral, encapsulated form, two of the individuals) of the same molecule?
The Analgesic effect was “analgesic effect, eliminating minor-to-moderate pain and discomfort”.

And the Mental effects ([3]; single oral administration of 2 g, encapsulated form)?
Its Mental effects is “pleasant mental effects, including an improvement in focus, alertness, concentration, reduction in anxiety, and a general feeling of well-being”.

And the Mental effects ([3]; single oral administration of 5 g, encapsulated form)?
The Mental effects was “undesirable mental effects, interfering with focus and alertness, with effects similar to intoxication”.

What about the “Serum Butyrate” value ([4]; 0 min (baseline, prior to ingestion)) of the same molecule?
The value was 0.32 ± 0.43 µg/mL.

What about the “Serum Butyrate” value ([4]; 20 min post ingestion, oral, 3 capsules delivering 786 mg of butyric acid) of the same molecule?
The value was 4.53 ± 7.56 µg/mL.

And the “Serum Butyrate” value ([4]; 45 min post ingestion, oral, 3 capsules delivering 786 mg of butyric acid)?
Its value is 0.77 ± 1.49 µg/mL.

What about the “Serum Butyrate” value ([4]; 90 min post ingestion, oral, 3 capsules delivering 786 mg of butyric acid) of the same molecule?
Its value is 0.39 ± 0.62 µg/mL.

And the “Serum Butyrate” value ([4]; 150 min post ingestion, oral, 3 capsules delivering 786 mg of butyric acid)?
Its value is 0.43 ± 0.64 µg/mL.

What about the “Serum Butyrate” value ([4]; 210 min post ingestion, oral, 3 capsules delivering 786 mg of butyric acid) of the same molecule?
The value was 0.37 ± 0.55 µg/mL.

And the “Tmax comparison between treatments” value ([4]; Wilcoxon rank test, listed as LysB)?
The value was “did not differ from NaB; also recorded: significantly less than TB”.

And the “AUC0-210 comparison between treatments” value [4, 7]?
Its value is “did not differ from NaB; also recorded: significantly greater than TB”.

And the “Cmax comparison between treatments” value [4, 7]?
Its value is “did not differ from NaB; also recorded: significantly greater than TB”.

What about the Alertness [5, 8] of the same molecule?
Its Alertness is 6.9 ± 1.5^€.

And the “Calm and Relaxed” value [5, 8]?
The value was 7.5 ± 0.8^# cm.

And the Concentration [5, 8]?
The Concentration was 7.1 ± 1.3 cm.

And the Mood [5, 8]?
The Mood was 7.7 ± 0.9 cm.

And the “Stressed and Anxious” value [5, 8]?
The value was 2.0 ± 1.4 cm.

What about the Well-being [5, 8] of the same molecule?
Its Well-being is 7.3 ± 0.9 cm.

And the Alertness ([5]; in vivo, po)?
Its Alertness is 7.2 ± 1.3 and 7.4 ± 1.2 and 7.5 ± 1.2 and 7.5 ± 1.1.

What about the “Alertness AUC” value ([5]; in vivo, po) of the same molecule?
Its value is 1544 ± 249.

What about the “Calm and Relaxed” value ([5]; in vivo, po) of the same molecule?
Its value is 7.7 ± 0.9^# cm and 7.6 ± 1.2 cm and 7.6 ± 1.1^# cm and 8.0 ± 0.9 cm.

And the “Calm and Relaxed AUC” value ([5]; in vivo, po)?
Its value is 1612 ± 207.

What about the Concentration ([5]; in vivo, po) of the same molecule?
The Concentration was 7.1 ± 1.4 cm and 7.5 ± 1.3^β cm and 7.4 ± 1.1 cm and 7.3 ± 1.6 cm.

And the “Concentration AUC” value ([5]; in vivo, po)?
Its value is 1532 ± 241.

What about the Mood ([5]; in vivo, po) of the same molecule?
The Mood was 7.9 ± 0.7 cm and 7.6 ± 1.1 cm and 8.0 ± 0.7 cm and 8.0 ± 0.8 cm.

And the “Mood AUC” value ([5]; in vivo, po)?
Its value is 1651 ± 171.

And the “Perform Tasks” value ([5]; in vivo, po)?
The value was 7.1 ± 1.3 cm and 7.4 ± 1.1 cm and 7.6 ± 1.3 cm.

And the “Perform Tasks AUC” value ([5]; in vivo, po)?
Its value is 1547 ± 262.

What about the “Stressed and Anxious” value ([5]; in vivo, po) of the same molecule?
Its value is 2.1 ± 1.6 cm and 2.3 ± 1.7 cm and 1.8 ± 1.3 cm and 2.0 ± 1.3 cm.

And the “Stressed and Anxious AUC” value ([5]; in vivo, po)?
The value was 431 ± 288.

And the Well-being ([5]; in vivo, po)?
The Well-being was 7.6 ± 0.9^# cm and 7.6 ± 1.1 cm and 7.7 ± 1.0^# cm and 8.0 ± 0.9 cm.

What about the “Well-being AUC” value ([5]; in vivo, po) of the same molecule?
The value was 1610 ± 195.

And the “Perform Tasks” value ([5]; motivation to perform tasks, 0 min (prior to ingestion), 100-mm VAS, Mean±SD)?
The value was 6.9 ± 1.7 cm.
